Like-named read-outs stand apart in the source and are kept apart here.
Columns and labels:
[1] = test system: peripheral blood mononuclear cells (PBMC); test: PBMC culture and MTS assay; format: cell-based, human; conditions: for GI50: Homo sapiens, 48 h; for Selectivity Index (PBMC): PBMCs versus average GI50 of cancer cells
Procedure: Peripheral blood mononuclear cells from healthy donors were isolated by density gradient centrifugation using Ficoll solution as described below. Blood samples used were supplied by the Canadian Blood Services under the Institutional Research Ethics Board Project # 18–099, and no human participants or volunteers were involved directly in the current study.
Whole blood was gently layered over an equal volume of Ficoll and centrifuged at 800 × g for 20 min with no brake. The Buffy coat was carefully collected by pipetting in 50 mL tubes and topped off with PBS. The cell isolates were subsequently mixed by inversion and centrifuged at 300 × g for 12 min. The supernatant was then carefully aspirated without disturbing the cell pellet, and the PBMCs were resuspended in ammonium-chloride-potassium (ACK) lysis buffer. The tubes were left to stand for 15 min to allow for red blood cell lysis. PBS was again added to the cells and centrifuged at 300 × g for 12 min and pelleted PBMCs were resuspended in RPMI + 10% heat inactivated FBS. Following counting, cells were centrifuged again and cryopreserved with a freezing medium composed of 40% FBS, 10% DMSO and 50% culture medium. Cryovials were placed in a − 80 °C for 24 h prior to transfer to liquid nitrogen for long-term storage.
PBMC cryovials were transferred from liquid nitrogen and placed in a 37 °C water bath until almost completely thawed. 1 mL of pre-warmed medium was added drop-wise and the entire contents of the cryovial was transferred to a 15-mL tube. Pre-warmed medium was then added to bring the volume up to 10 mL. The PBMCs were centrifuged at 300 × g for 10 min, and the cell pellet was gently resuspended with 5 mL of warm medium. The tubes were subsequently placed in a 37 °C incubator in a 5° angled rack for 4 h. An additional 5 mL warm medium containing of 30 units/mL benzonase nuclease was then injected into the cell solution and left to stand at room temperature for 5 min before centrifugation for 10 min at 300 × g. The pelleted cells were resuspended in the medium with 100 units/mL of IL-2 (Cedarlane Laboratories, Burlington, ON, Canada) and a small aliquot was used for cell counting and viability staining. The cells were plated in 96-well plates at a density of 80,000–120,000 cellules/well/100 µL.
Following a 48-h incubation period, eight different concentrations of compound solutions using two to four-fold serial dilutions were added to the cells (100 µl). Cells were incubated for an additional 48 h and cytotoxicity was established using the CellTiter 96 cytotoxicity assay (Promega). 40 μl of the tetrazolium dye was added to each well of the plate and then incubated for 2 h. OD was then read directly at 490 nm using the automated Biotek Synergy H4 plate reader. The GI50 was calculated similarly to the SRB.

MDA-MB435 = test: Sulforhodamine B (SRB) assay; format: cell-based; conditions: Homo sapiens, MDA-MB-435, MDA-MB435 cells, 48 h
Summary of the method: (§1)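 Protein-stain growth readout: after 48 h of compound treatment over eight concentrations, TCA-fixed cells are stained with SRB and optical density measured. Time-zero OD is subtracted to give relative growth, from which GI50 is fitted.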

Mel-SOE = test: Sulforhodamine B (SRB) assay; format: cell-based; conditions: Mel-SOE melanoma cells, 48 h
Summary of the method: as §1

MDA-MB468 = test: Sulforhodamine B (SRB) assay; format: cell-based; conditions: Homo sapiens, MDA-MB-468, MDA-MB468 breast cancer cells, 48 h
Summary of the method: (§2)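 Cells seeded at 10,000–25,000 cells/cm^2 (line-dependent) and left to adhere overnight, then exposed to eight compound concentrations (2–4-fold serial dilutions) for 48 h. Fixation with cold TCA, staining with 0.4% SRB; relative growth = 100*(T − T0)/(C − T0), GI50 from sigmoidal variable-slope fit.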

UKRV-Mel-38 = test: Sulforhodamine B (SRB) assay; format: cell-based; conditions: UKRV-Mel-38 melanoma cells, 48 h
Summary of the method: as §1

MCF7 = test: Sulforhodamine B (SRB) assay; format: cell-based; conditions: Homo sapiens; for IC50: MCF7, Supplementary Table S1, SRB; for GI50: MCF7 breast cancer cells, 48 h, SRB
Summary of the method: as §2

MDA-MB231 = test: Sulforhodamine B (SRB) assay; format: cell-based; conditions: Homo sapiens, MDA-MB-231; for GI50: MDA-MB231 breast cancer cells, 48 h, SRB; for IC50: Supplementary Table S1, SRB
Summary of the method: as §1

MZ-Mel-3 = test: Sulforhodamine B (SRB) assay; format: cell-based; conditions: MZ-Mel-3 melanoma cells, 48 h
Summary of the method: as §1

RPMI-8226 = test: Sulforhodamine B (SRB) assay; format: cell-based; conditions: Homo sapiens, Supplementary Table S1, SRB
Summary of the method: as §2

HeLa = test: Sulforhodamine B (SRB) assay; format: cell-based; conditions: Homo sapiens; for IC50: HeLa, Supplementary Table S1, SRB; for GI50: HeLa cervical cancer cells, 48 h, SRB
Summary of the method: as §2

[2] = PBMC #1, MTS, read-out: GI50 PBMC #1
[3] = PBMC #2, MTS, read-out: GI50 PBMC #2

| Structure (SMILES) | GI50 [1, 2] [nM] | GI50 [1, 3] [nM] | Selectivity Index (PBMC) [1] | GI50 (MDA-MB435) [nM] | GI50 (Mel-SOE) [nM] | GI50 (MDA-MB468) [nM] | GI50 (UKRV-Mel-38) [nM] | IC50 (MCF7) [nM] | GI50 (MCF7) [nM] | GI50 (MDA-MB231) [nM] | IC50 (MDA-MB231) [nM] | GI50 (MZ-Mel-3) [nM] | IC50 (RPMI-8226) [nM] | IC50 (HeLa) [nM] | GI50 (HeLa) [nM] |
| --- | --- | --- | --- | --- | --- | --- | --- | --- | --- | --- | --- | --- | --- | --- | --- |
| COc1ccccc1C(=O)/C=C/c1cc2cccc(OC)c2[nH]c1=O [CTR-21, (E)-8-methoxy-3-(3-(2-methoxyphenyl)-3-oxoprop-1-enyl) quinolin-2(1H)-one] | 1860 ± 336 | 1630 ± 317 | 106 | 7 ± 2 | 27 ± 5 | 29 ± 10 | 13 ± 3 | 75.1 ± 3.07 | 16 ± 5 | 17 ± 3 | 56.9 ± 10.5 | 6 ± 1 | 5.34 ± 0.89 | 11.9 ± 1.4 | 8 ± 3 |
| CCOc1ccccc1C(=O)/C=C/c1cc2ccccc2[nH]c1=O [CTR-32, (E)-3-(3-(2-ethoxyphenyl)-3-oxoprop-1-enyl)quinolin-2(1H)-one] | 1880 ± 147 | 787 ± 396 | 67 | 13 ± 5 | 33 ± 9 | 26 | 22 ± 3 | 46.4 ± 3.61 | 27 ± 6 | 20 ± 2 | 44.2 ± 4.21 | 6 ± 2 | 6.29 ± 1.43 | 12.9 ± 0.35 | 11 ± 2 |
